From patent publication US20190010167A1, “INHIBITORS OF THE MENIN-MLL INTERACTION” (Vitae Pharmaceuticals, Inc., priority 2015, published 2019)

target: T1, wild-type menin / MLL-AF9 fusion protein (Homo sapiens, UniProt O00255); test: AlphaLISA menin/MLL binding assay, wild-type menin (Assay 1); settings: biotinylated wild-type menin 5 nM, MLL-AF9-FLAG lysate
T1 construct: made in house; host or cells: E. coli (menin); HEK293 cleared lysate (MLL-AF9-FLAG)
T1 sequence (O00255 1-610): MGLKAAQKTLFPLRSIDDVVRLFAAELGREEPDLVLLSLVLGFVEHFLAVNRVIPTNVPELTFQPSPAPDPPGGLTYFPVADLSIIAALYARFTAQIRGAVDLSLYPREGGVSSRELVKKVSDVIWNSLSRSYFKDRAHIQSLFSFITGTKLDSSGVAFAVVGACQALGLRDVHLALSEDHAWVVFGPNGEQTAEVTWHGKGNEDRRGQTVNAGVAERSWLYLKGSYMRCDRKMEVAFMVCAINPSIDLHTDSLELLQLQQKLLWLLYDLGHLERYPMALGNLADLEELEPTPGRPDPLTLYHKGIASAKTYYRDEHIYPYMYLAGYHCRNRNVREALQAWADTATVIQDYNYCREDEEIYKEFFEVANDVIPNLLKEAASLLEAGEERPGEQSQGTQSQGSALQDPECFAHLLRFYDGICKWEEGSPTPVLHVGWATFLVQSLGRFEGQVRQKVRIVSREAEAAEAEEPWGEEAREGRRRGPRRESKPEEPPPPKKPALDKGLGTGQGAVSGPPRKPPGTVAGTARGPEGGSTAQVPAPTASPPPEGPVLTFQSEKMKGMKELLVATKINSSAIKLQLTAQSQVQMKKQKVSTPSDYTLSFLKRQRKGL
Method: Potencies of inhibitor compounds against menin/MLL binding were assessed by AlphaLISA assay using biotinylated (1) wild-type menin or (2) mutated menin (described in Nature (2012) Vol. 482, pp. 542-548) and MLL-AF9 fusion protein bearing a FLAG epitope at its C-terminus. Menin proteins were expressed in E. coli and covalently modified with biotin using EZ-Link™ Sulfo-NHS-Biotin (ThermoFisher Cat. No. 21217) according to manufacturer's protocol. MLL1-1,396 fused to AF91-92 and the C-terminal FLAG peptide was expressed in HEK293 cells and used as a lysate cleared at 21,000×g for 10 min.
Compounds (2 μL of solutions in DMSO) were dispensed in white 96-well half-area plates (Corning Cat. No. 3693) and incubated for 30 min at RT with 5 nM biotinylated menin and appropriate amount of MLL-AF9-FLAG lysate in 40 μL of 50 mM Tris-HCl buffer pH 7.4 containing 5% (v/v) DMSO, 50 mM NaCl, 0.01% (w/v) bovine serum albumin (BSA) and 1 mM DTT. To this incubation mixture, 40 μl of AlphaLISA anti-FLAG acceptor (PerkinElmer Cat. No. AL112C) and streptavidin donor (PerkinElmer Cat. No. 6760002) beads (10 μg/mL each) was added and incubation continued at RT for 60 min. Alpha (amplified luminescent proximity homogeneous assay) signal was measured on an Envision multi-label plate reader at the end of the incubation. All steps were conducted under dim fluorescent light.
These percent inhibition values were regressed against compound concentrations in the assay using four parameter logit non-linear curve fitting (XLFit, IDBS). The IC50 values were derived from the curve fitting as inflection points on the dose-response curves and are set out in Table 1 below.

Structure (SMILES) | IC50 [µM]
Cc1c(CN2CCC3(CCN(c4ncnc5sc(CC(F)(F)F)cc45)C3)C2)ccc2[nH]c(C#N)cc12 (single isomer, unassigned) [Example 30b, 4-methyl-5-((7-(6-(2,2,2-trifluoroethyl)thieno[2,3-d]pyrimidin-4-yl)-2,7-diazaspiro[4.4]nonan-2-yl)methyl)-1H-indole-2-carbonitrile] | < 0.1
Cc1c(CN2CC[C@@]3(CCN(c4ccnc5ccc(CC(F)(F)F)cc45)C3)C2)ccc2[nH]c(C#N)cc12 (single isomer, unassigned) [Example 86a, 4-methyl-5-((7-(6-(2,2,2-trifluoroethyl)quinolin-4-yl)-2,7-diazaspiro[4.4]nonan-2-yl)methyl)-1H-indole-2-carbonitrile] | 0.1 to 1
Cc1c(CN2CC[C@@]3(CCN(c4ccnc5ccc(CC(F)(F)F)cc45)C3)C2)ccc2[nH]c(C#N)cc12 (single isomer, unassigned) [Example 86b, 4-methyl-5-((7-(6-(2,2,2-trifluoroethyl)quinolin-4-yl)-2,7-diazaspiro[4.4]nonan-2-yl)methyl)-1H-indole-2-carbonitrile] | 0.1 to 1
CC(C)N1CC2(CCN(c3ncnc4sc(CC(F)(F)F)cc34)CC2)C1 [Example 3, 4-(2-isopropyl-2,7-diazaspiro[3.5]nonan-7-yl)-6-(2,2,2-trifluoroethyl)thieno[2,3-d]pyrimidine] | ≥ 1
FC(F)(F)Cc1cc2c(N3CCC4(CC3)CN(CC3CCCO3)C4)ncnc2s1 (stereo not drawn) [Example 4, 4-(2-((tetrahydrofuran-2-yl)methyl)-2,7-diazaspiro[3.5]nonan-7-yl)-6-(2,2,2-trifluoroethyl)thieno[2,3-d]pyrimidine] | ≥ 1
FC(F)(F)Cc1cc2c(N3CCC4(CC3)CN(CC3CCOC3)C4)ncnc2s1 (stereo not drawn) [Example 5, 4-(2-((tetrahydrofuran-3-yl)methyl)-2,7-diazaspiro[3.5]nonan-7-yl)-6-(2,2,2-trifluoroethyl)thieno[2,3-d]pyrimidine] | 0.1 to 1
FC(F)(F)Cc1cc2c(N3CCC4(CC3)CN(CC3CCCCO3)C4)ncnc2s1 (stereo not drawn) [Example 6, 4-(2-((tetrahydro-2H-pyran-2-yl)methyl)-2,7-diazaspiro[3.5]nonan-7-yl)-6-(2,2,2-trifluoroethyl)thieno[2,3-d]pyrimidine] | ≥ 1
FC(F)(F)Cc1cc2c(N3CCC4(CC3)CN(CC3CCCOC3)C4)ncnc2s1 (stereo not drawn) [Example 7, 4-(2-((tetrahydro-2H-pyran-3-yl)methyl)-2,7-diazaspiro[3.5]nonan-7-yl)-6-(2,2,2-trifluoroethyl)thieno[2,3-d]pyrimidine] | ≥ 1
FC(F)(F)Cc1cc2c(N3CCC4(CC3)CN(C3CCOCC3)C4)ncnc2s1 [Example 8, 4-(2-(tetrahydro-2H-pyran-4-yl)-2,7-diazaspiro[3.5]nonan-7-yl)-6-(2,2,2-trifluoroethyl)thieno[2,3-d]pyrimidine] | ≥ 1
FC(F)(F)Cc1cc2c(N3CCC4(CC3)CN(C3CCCCC3)C4)ncnc2s1 [Example 9, 4-(2-cyclohexyl-2,7-diazaspiro[3.5]nonan-7-yl)-6-(2,2,2-trifluoroethyl)thieno[2,3-d]pyrimidine] | 0.1 to 1
FC(F)(F)Cc1cc2c(N3CCC4(CC3)CN(CC3CCCC(F)(F)C3)C4)ncnc2s1 (stereo not drawn) [Example 11, 4-(2-((3,3-difluorocyclohexyl)methyl)-2,7-diazaspiro[3.5]nonan-7-yl)-6-(2,2,2-trifluoroethyl)thieno[2,3-d]pyrimidine] | 0.1 to 1
FC(F)(F)Cc1cc2c(N3CCC4(CC3)CN(CC3CCC(F)(F)CC3)C4)ncnc2s1 [Example 12, 4-(2((4,4-difluorocyclohexyl)methyl)-2,7-diazaspiro[3.5]nonan-7-yl)-6-(2,2,2-trifluoroethyl)thieno[2,3-d]pyrimidine] | 0.1 to 1
COC1CC(CN2CC3(CCN(c4ncnc5sc(CC(F)(F)F)cc45)CC3)C2)C1 (stereo not drawn) [Example 13] | ≥ 1
FC(F)(F)Cc1cc2c(N3CCC4(CC3)CN(CC3CC(F)(F)C3)C4)ncnc2s1 [Example 14, 4-(2-((3,3-difluorocyclobutyl)methyl)-2,7-diazaspiro[3.5]nonan-7-yl)-6-(2,2,2-trifluoroethyl)thieno[2,3-d]pyrimidine] | 0.1 to 1
CC(C)(O)CN1CC2(CCN(c3ncnc4sc(CC(F)(F)F)cc34)CC2)C1 [Example 15, 2-methyl-1-(7-(6-(2,2,2-trifluoroethyl)thieno[2,3-d]pyrimidin-4-yl)-2,7-diazaspiro[3.5]nonan-2-yl)propan-2-ol] | ≥ 1
CC(C)(F)CN1CC2(CCN(c3ncnc4sc(CC(F)(F)F)cc34)CC2)C1 [Example 16, 4-(2-(2-fluoro-2-methylpropyl)-2,7-diazaspiro[3.5]nonan-7-yl)-6-(2,2,2-trifluoroethyl)thieno[2,3-d]pyrimidine] | ≥ 1
CC(C)(N)CC(=O)N1CC2(CCN(c3ncnc4sc(CC(F)(F)F)cc34)CC2)C1 [Example 17, 3-amino-3-methyl-1-(7-(6-(2,2,2-trifluoroethyl)thieno[2,3-d]pyrimidin-4-yl)-2,7-diazaspiro[3.5]nonan-2-yl)butan-1-one] | ≥ 1
FC(F)(F)Cc1cc2c(N3CCC4(CC3)CN(CC3CCOCC3)C4)ncnc2s1 [Example 19, 4-(2-((tetrahydro-2H-pyran-4-yl)methyl)-2,7-diazaspiro[3.5]nonan-7-yl)-6-(2,2,2-trifluoroethyl)thieno[2,3-d]pyrimidine] | 0.1 to 1
Cc1c(CN2CC3(CCN(c4ncnc5sc(CC(F)(F)F)cc45)CC3)C2)ccc2[nH]c(C#N)cc12 [Example 21, 4-methyl-5-((7-(6-(2,2,2-trifluoroethyl)thieno[2,3-d]pyrimidin-4-yl)-2,7-diazaspiro[3.5]nonan-2-yl)methyl)-1H-indole-2-carbonitrile] | 0.1 to 1
FC(F)(F)Cc1cc2c(N3CCC4(CCN(CC5CCOC5)C4)C3)ncnc2s1 (stereo not drawn) [Example 31, 4-(7-((Tetrahydrofuran-3-yl)methyl)-2,7-diazaspiro[4.4]nonan-2-yl)-6-(2,2,2-trifluoroethyl)thieno[2,3-d]pyrimidine] | 0.1 to 1
FC(F)(F)Cc1cc2c(N3CCC4(CCN(CC5CCC(F)(F)CC5)C4)C3)ncnc2s1 (stereo not drawn) [Example 32, 4-(7-((4,4-difluorocyclohexyl)methyl)-2,7-diazaspiro[4.4]nonan-2-yl)-6-(2,2,2-trifluoroethyl)thieno[2,3-d]pyrimidine] | 0.1 to 1
N#Cc1cccc(CN2CCC3(CCN(c4ncnc5sc(CC(F)(F)F)cc45)C3)C2)c1 (stereo not drawn) [Example 35, 3-((7-(6-(2,2,2-Trifluoroethyl)thieno[2,3-d]pyrimidin-4-yl)-2,7-diazaspiro[4.4]nonan-2-yl)methyl)benzonitrile] | 0.1 to 1
CS(=O)(=O)c1ccc(CN2CCC3(CCN(c4ncnc5sc(CC(F)(F)F)cc45)C3)C2)c(Cl)c1 (stereo not drawn) [Example 36, 4-(7-(2-chloro-4-(methylsulfonyl)benzyl)-2,7-diazaspiro[4.4]nonan-2-yl)-6-(2,2,2-trifluoroethyl)thieno[2,3-d]pyrimidine] | 0.1 to 1
FC(F)(F)Cc1cc2c(N3CCC4(CCN(C[C@H]5CC[C@H](C(F)(F)F)CC5)C4)C3)ncnc2s1 (stereo partly drawn) [Example 37, 6-(2,2,2-Trifluoroethyl)-4-(7-(((1r,4r)-4-(trifluoromethyl)cyclohexyl)methyl)-2,7-diazaspiro[4.4]nonan-2-yl)thieno[2,3-d]pyrimidine] | 0.1 to 1
